Each structure is given as a SMILES string. Values joined by “and” are separate entries in the source; they are usually repeats but may differ in a detail not shown here. Equal entries are not always repeated.

This passage reports IC50 and viability, T/C results from PubChem BioAssay AID1963873 (Molecular Pharmacology Branch, DTP, NCI, 2024).

The test relates to 276233-004-R-J1-PDC KRAS spheroids with HUVEC/MSC, viability. Put plainly: Anticancer human tumor 276233-004-R-J1-PDC patient-derived colon adenocarcinoma cell line growth inhibition [KRAS2]. The note with it: for viability, T/C: stronger effect = lower value. An excerpt: Multicellular complex tumor spheroid response to RAS pathway inhibitors in combination with a targeted agents in patient-derived cell lines with oncogenic KRAS variants from multiple cancer types
A high-throughput screen of multi-cell type tumor spheroids was designed to identify active combinations of targeted small molecules and KRAS pathway inhibitors. Complex spheroids include a stromal component modeled by human endothelial cells (HUVEC) and fibroblasts modeled by human mesenchymal stem cells (MSCs). The concentration ranges selected for each drug and investigational agent were based upon clinically achievable concentrations if the clinical Cmax of the agent was known.
Compounds. The drugs and investigational agents: BI-3406 (NSC825286), BAY-293 (NSC824723), batoprotafib (TNO155; NSC825523), sotorasib (AMG 510; NSC818433), MRTX1257 (NSC819558), elimusertib (BAY 1895344; NSC800525), molibresib (GSK525762; NSC774829), temuterkib (LY3214996; NSC803410), venetoclax (NSC766270), alisertib (NSC759677), olaparib (NSC753686), talazoparib (NSC767125), erdafitinib (NSC781556), ipatasertib (NSC767898), cabozantinib (NSC761068), nintedanib (NSC756659), abemaciclib (NSC768073), docetaxel (NSC628503), trametinib (NSC758246), and sapanisertib (NSC764658) were obtained from the National Cancer Institute (NCI) Developmental Therapeutics Program Chemical Repository. The FDA-approved anticancer drug set is available from the Developmental Therapeutics Program. […] The stock solutions were prepared in dimethyl sulfoxide (DMSO, Sigma-Aldrich, St. Louis, MO, cat. D2650) at 800-fold the tested concentration and stored at -70 degrees C prior to their use. All drugs and investigational agents were tested over a range starting from a high concentration at or near the clinical Cmax and decreasing in half-log increments. If the clinical Cmax for an agent had not been determined, the highest concentration tested was 10 microM.
Cell Culture. All cells were maintained in an incubator at 37 degrees C and 5% CO2 with 95% humidity. The PDC lines were cultured according to standard operating procedures established by the NCI PDMR (https://pdmr.cancer.gov/sops/default.htm). Briefly, all PDCs were thawed and cultured in Matrigel-coated flasks prepared with a working solution of 1X Ham's F-12 nutrient mix, without supplementation (Invitrogen, Waltham, MA, cat. 11765054), 100 U/mL penicillin-streptomycin (Invitrogen, cat. 15140122), and 2.5% Matrigel (Corning Inc., Corning, NY, cat. 354248) for the first three passages. All PDCs were cultured in complete DMEM/F-12 media containing advanced DMEM/F-12 (Invitrogen, cat. 12634028), 4.9% defined fetal bovine serum, heat inactivated (HyClone Laboratories Inc., Logan, UT, cat. SH30070.03HI), 389 ng/mL hydrocortisone (Sigma-Aldrich, cat. H4001), 9.7 ng/mL human EGF recombinant protein (Invitrogen, cat. PHG0313), 23.4 microg/mL adenine (Sigma-Aldrich, cat. A2786), 97.3 U/mL penicillin-streptomycin (Invitrogen, cat. 15140122), 1.9 mM L-glutamine (Invitrogen, cat. 25030081), and 9.7 microM Y-27632 dihydrochloride (Tocris Bioscience, Bristol, United Kingdom, cat. 1254). The PDCs were cultured in complete DMEM/F12 media without 9.7 microM Y-27632 dihydrochloride for at least two passages prior to the screen. The established cell line HOP-62 was cultured in RPMI 1640 medium, HEPES (Invitrogen, cat. 22400105) with 10% defined fetal bovine serum (HyClone Laboratories Inc., cat. SH30070.03) and 2 mM L-glutamine (Invitrogen, cat. 25030081). The pooled donor HUVEC were cultured in endothelial cell growth medium 2 (PromoCell, Heidelberg, Germany, cat. C-22011) and the hMSC were cultured in mesenchymal stem cell growth medium 2 (PromoCell, cat. C-28009). For all experiments, HUVEC and hMSC were used at passages </=5, while the malignant cell lines were used at passages </=15. […]

Setting [1] is: compound alone, run of 07/12/2021.
Setting [2] is: compound alone, run of 07/19/2021.
The mark [3] stands for this setting: compound alone, run of 07/26/2021.
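Note: cells exposed to agents for seven days before viability read.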
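Throughout, for viability, T/C: 100% = DMSO vehicle control wells and lower values mean fewer viable cells.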

For orientation: IC50 means the concentration that inhibits the measured activity by half. On to `C=CC(=O)N1CCN(c2nc(=O)n(-c3c(C)ccnc3C(C)C)c3nc(-c4c(O)cccc4F)c(F)cc23)C(C)C1` (stereo unspecified), for which the IC50 by setting is: under setting [1], over 10 µM; under setting [2], over 10 µM; under setting [3], over 10 µM.
Take `C=CC(=O)N1CCN(c2nc(OCC3CCCN3C)nc3c2CCN(c2cccc4cccc(C)c24)C3)CC1CC#N` (stereo unspecified): the IC50 by setting is: under setting [1], > 3.16 µM and 2.82 µM; under setting [2], > 3.16 µM and 2.57 µM and 2.49 µM; under setting [3], over 3.16 µM.
In general, viability, T/C refers to the result in the treated group divided by that in the control group, in per cent. On to `CC(=O)Nc1cccc(-n2c(=O)n(C3CC3)c(=O)c3c(Nc4ccc(I)cc4F)n(C)c(=O)c(C)c32)c1`, for which the viability, T/C is, setting by setting: (compound 0.0001 µM) 95.5% [middle of 5 runs]; (compound 0.000316 µM) 85.5% [middle of 5 runs]; (compound 0.00316 µM) 68.5% [middle of 5 runs]; (compound 0.01 µM) 54.7% [middle of 5 runs]; (compound 0.0316 µM) 21.5% [middle of 5 runs]. Moreover, the IC50 (curve of compound) is 9.31 nM [middle of 5 runs].
As to `CC(=O)OC12COC1CC(O)C1(C)C(=O)C(O)C3=C(C)C(OC(=O)C(O)C(NC(=O)OC(C)(C)C)c4ccccc4)CC(O)(C(OC(=O)c4ccccc4)C21)C3(C)C` (stereo unspecified), the viability, T/C (compound 0.01 µM) was 90.3% [middle of 5 runs]; the viability, T/C (compound 0.316 µM) was 88.6% [middle of 5 runs]; the viability, T/C (compound 1 µM) was 94.5% [middle of 5 runs]; the viability, T/C (compound 3.16 µM) is 92.1% [middle of 5 runs]. Where the note is “curve of compound”, the 50% inhibitory concentration (IC50) is over 3.16 µM.
For the compound `CC(C)NCC(C(=O)N1CCN(c2ncnc3c2C(C)CC3O)CC1)c1ccc(Cl)cc1` (stereo unspecified), the viability, T/C is 91% [middle of 5 runs] (compound 0.0316 µM), 91.5% [middle of 5 runs] (compound 0.1 µM), 79.8% [middle of 5 runs] (compound 0.316 µM) and 73.1% [middle of 5 runs] (compound 10 µM). For the same compound, the half-maximal inhibitory concentration (IC50) (curve of compound) is over 10 µM.
For the compound `CC(C)n1nc(-c2ccc3oc(N)nc3c2)c2c(N)ncnc21`, the viability, T/C (compound 0.000316 µM) was 98.1% [middle of 5 runs]; the viability, T/C (compound 0.001 µM) was 86.1% [middle of 5 runs]; the viability, T/C (compound 0.01 µM) was 66.5% [middle of 5 runs]; the viability, T/C (compound 0.0316 µM) was 60.8% [middle of 5 runs]; the viability, T/C (compound 0.1 µM) was 59.6% [middle of 5 runs]. Further, the IC50 (curve of compound) was over 0.1 µM.
As to `CC1(C)CCC(CN2CCN(c3ccc(C(=O)NS(=O)(=O)c4ccc(NCC5CCOCC5)c([N+](=O)[O-])c4)c(Oc4cnc5[nH]ccc5c4)c3)CC2)=C(c2ccc(Cl)cc2)C1`, the viability, T/C by setting is: (compound 0.0316 µM) 93.5% [middle of 5 runs]; (compound 0.1 µM) 88.8% [middle of 5 runs]; (compound 0.316 µM) 102% [middle of 5 runs]; (compound 1 µM) 93.4% [middle of 5 runs]. Further, the 50% inhibitory concentration (IC50) (curve of compound) is over 10 µM.
On to `CC1COCCN1c1cc(-c2ccnn2C)c2ccnc(-c3ccn[nH]3)c2n1` (stereo unspecified), for which the viability, T/C by setting is: (compound 0.01 µM) 96.2% [middle of 5 runs]; (compound 0.1 µM) 82% [middle of 5 runs]. Also, the IC50 (curve of compound) is > 3.16 µM and 0.735 µM.
As to `CC1OCC2(CCN(c3cnc(Sc4ccnc(N)c4Cl)c(N)n3)CC2)C1N` (stereo unspecified), the viability, T/C (compound 0.0316 µM) was 83.3% and 88.2% and 102%. In addition, the concentration for half-maximal inhibition (IC50) was over 10 µM under setting [2], over 10 µM under setting [3] and over 10 µM (curve of compound).
On to `CCN1CCN(Cc2ccc(Nc3ncc(F)c(-c4cc(F)c5nc(C)n(C(C)C)c5c4)n3)nc2)CC1`, for which the viability, T/C reads like this: (compound 0.01 µM) 92.1% [middle of 5 runs]; (compound 0.1 µM) 82.8% [middle of 5 runs]; (compound 0.316 µM) 95.5% [middle of 5 runs]; (compound 1 µM) 106% [middle of 5 runs]. Moreover, where the note is “curve of compound”, the concentration for half-maximal inhibition (IC50) was over 1 µM.
Consider `CCNC(=O)CC1N=C(c2ccc(Cl)cc2)c2cc(OC)ccc2-n2c(C)nnc21` (stereo unspecified), for which the viability, T/C was 95.8% [middle of 5 runs] (compound 0.0316 µM); 88.7% [middle of 5 runs] (compound 0.1 µM); 68.2% [middle of 5 runs] (compound 0.316 µM); 70.9% [middle of 5 runs] (compound 1 µM); 71.3% [middle of 5 runs] (compound 3.16 µM). Also, the half-inhibitory concentration (IC50) (curve of compound) was > 10 µM and 5.56 µM.
For the compound `CN(C)C/C=C/C(=O)Nc1cc2c(Nc3ccc(F)c(Cl)c3)ncnc2cc1O[C@H]1CCOC1`, the viability, T/C is 98.5% [middle of 5 runs] (compound 0.000316 µM); 92.7% [middle of 5 runs] (compound 0.001 µM); 90.8% [middle of 5 runs] (compound 0.00316 µM); 95.8% [middle of 5 runs] (compound 0.01 µM); 97.7% [middle of 5 runs] (compound 0.0316 µM); 90% [middle of 5 runs] (compound 0.1 µM). In addition, under “curve of compound”, the 50% inhibitory concentration (IC50) is over 0.1 µM.
For the compound `CNCc1ccccc1-c1csc(C(C)Nc2nc(C)nc3cc(OC)c(OC)cc23)c1` (stereo unspecified), for the setting “compound 10 µM”, the viability, T/C is 1.13% [middle of 15 runs]. The half-inhibitory concentration (IC50) reads like this: under setting [2], 1.25 µM [middle of 4 runs]; under setting [3], 1.67 µM [middle of 5 runs].
As to `COC(=O)c1ccc2c(C(=Nc3ccc(N(C)C(=O)CN4CCN(C)CC4)cc3)c3ccccc3)c(O)[nH]c2c1`, the viability, T/C was 93.3% [middle of 5 runs] (compound 0.0316 µM), 90.3% [middle of 5 runs] (compound 0.1 µM), 81.9% [middle of 5 runs] (compound 0.316 µM) and 86.2% [middle of 5 runs] (compound 1 µM). In addition, the IC50 (curve of compound) was over 10 µM.
Take `COc1cc(Nc2ncc3c(n2)-c2ccc(Cl)cc2C(c2c(F)cccc2OC)=NC3)ccc1C(=O)O`: the viability, T/C is 99.8% [middle of 5 runs] (compound 0.1 µM), 93.1% [middle of 5 runs] (compound 0.316 µM), 87.7% [middle of 5 runs] (compound 1 µM) and 95.5% [middle of 5 runs] (compound 3.16 µM). The 50% inhibitory concentration (IC50) (curve of compound) was over 10 µM.
For `COc1cc(OC)cc(N(CCNC(C)C)c2ccc3ncc(-c4cnn(C)c4)nc3c2)c1`, the viability, T/C (compound 0.0316 µM) is 76.3% [middle of 5 runs]; the viability, T/C (compound 0.1 µM) is 67.4% [middle of 5 runs]; the viability, T/C (compound 0.316 µM) is 67% [middle of 5 runs].
For the compound `COc1cc2nccc(Oc3ccc(NC(=O)C4(C(=O)Nc5ccc(F)cc5)CC4)cc3)c2cc1OC`, the viability, T/C is, setting by setting: (compound 0.0316 µM) 93.2% [middle of 5 runs]; (compound 0.1 µM) 89.3% [middle of 5 runs]; (compound 3.16 µM) 93.1% [middle of 5 runs]. The concentration for half-maximal inhibition (IC50) (curve of compound) is over 10 µM.
For the compound `Cn1nccc1Nc1nccc(-c2cc3c(s2)C(C)(C)N(CCN2CCOCC2)C3=O)n1`, the viability, T/C by setting is: (compound 0.1 µM) 96.5% [middle of 5 runs]; (compound 0.316 µM) 86.1% [middle of 5 runs]; (compound 1 µM) 79.7% [middle of 5 runs]; (compound 3.16 µM) 54.2% [middle of 5 runs]; (compound 10 µM) 49.9% [middle of 5 runs].
Regarding `Cn1ncnc1[C@H]1c2n[nH]c(=O)c3cc(F)cc(c23)N[C@@H]1c1ccc(F)cc1`, the viability, T/C runs as follows: (compound 0.000316 µM) 96.7% [middle of 5 runs]; (compound 0.001 µM) 101% [middle of 5 runs]; (compound 0.1 µM) 102% [middle of 5 runs]. Also, the IC50 (curve of compound) was over 0.1 µM.
In the case of `O=C(c1cc(Cc2n[nH]c(=O)c3ccccc23)ccc1F)N1CCN(C(=O)C2CC2)CC1`, the viability, T/C is, setting by setting: (compound 0.1 µM) 91.9% [middle of 5 runs]; (compound 0.316 µM) 84.4% [middle of 5 runs]; (compound 1 µM) 89.5% [middle of 5 runs]. Besides, the IC50 (curve of compound) was over 10 µM.
